Assay results reported in PMC10057332, “Anticancer and Targeting Activity of Phytopharmaceutical Structural Analogs of a Natural Peptide from Trichoderma longibrachiatum and Related Peptide-Decorated Gold Nanoparticles” (International Journal of Molecular Sciences, 2023).
“And” between values parts separate entries of the source, which are not always exact repeats. Equal values may be shown once. Residues, ends and D or L forms follow the SMILES beside them.

Tests used:
[1] = tested on: MDA-MB-231 cells; assay: MTS cytotoxicity in MDA-MB-231 triple negative breast cancer cells; assay type: cell-based, human; conditions: for killing activity in cancer cells: 10 µM peptide; for IC50: cells exposed to peptaibols for 24 h, MTS assay
Protocol: (§1) Cells were incubated with increasing concentrations of peptides for 24 h before assessing cell viability with MTS assay in order to create dose/response curves (Figure 4) and calculate the half maximal inhibitory concentration (IC50) values for each peptaibol (Table 3). For convenience, peptides have been subdivided based on their C-terminal substituents, i.e., leucinol (lol) or amide (-NH2).
(§2) The cytotoxicity of peptides and free Api8- and Leu4-decorated GNPs was assessed with the MTS assay (CellTiter 96® AQueous One Solution Cell Proliferation Assay, Promega, Milan, Italy) in cancer MDA-MB-231 and normal MCF-10A cells exposed to increasing concentrations of peptaibols/GNPs for 24 h. Cells (8 × 10^3 cells/well for MDA-MB-231, 6 × 10^3 cells/well for MCF-10A) were seeded in 96-well plates, and after 24 h the medium was replaced with a fresh one containing peptaibols/GNPs. For MTS assay, the medium was replaced with 100 μL of serum-free medium and 20 μL of the CellTiter 96® reagent. After 60–90 min, the absorbance at 492 nm was measured with a Multiskan Go (Thermo Fischer Scientific, Carlsbad, CA, USA) plate reader and cell viability was expressed as a function of absorbance relative to that of control cells (considered as 100% viability). IC50 values for each peptaibol treatment were extrapolated from the relative dose–response curves obtained with the software GraphPad Prism 9.5.

[2] = tested on: MCF-10A cells; assay: MTS cytotoxicity in normal epithelial breast MCF-10A cells; assay type: cell-based, human; conditions: for IC50: cells exposed to peptaibols for 24 h, MTS assay; for effect on viability of MCF-10A cells: peptide concentration range tested, 24 h, MTS
Protocol: as §1, §2

[3] = MCF-10A cells, 1 h at 37 °C, CD at 25 °C
Protocol: The CD profile of Api8-NH2 and Leu4-NH2 was also acquired in the presence of cells (cell line MCF-10A) (Figure 1). This study also provided information on the stability of the peptides in the biological environment [63].
Figure 1 CD profiles of Leu4-NH2 and Api8-NH2 acquired at 25 °C in the presence of MCF-10A epithelial breast cells. (Peptide concentrations: Api8, 5 × 10^−5 M; Leu4, 1 × 10^−5 M).
The CD spectra were obtained on a Jasco (Tokyo, Japan) J-1500 spectropolarimeter. Fused quartz cells (Hellma, Mühlheim, Germany) of 1 mm path length were used. The values are expressed in terms of [θ]T, total molar ellipticity (deg∙cm^2∙dmol^−1). […] The CD measurements in cells were performed as follows: 1 × 10^6 cells were harvested, washed twice in PBS and incubated in the same buffer with peptides (concentrations: Api8, 5 × 10^−5 M; Leu4, 1 × 10^−5 M) for 1 h at 37°C in a rotating mixer before recording the CD spectra.

[4] = tested on: MDA-MB-231 with respect to MCF-10A cells; assay: Flow cytometry uptake of FITC-conjugated peptaibols; assay type: cell-based, human; conditions: highest concentration tested, 24 h incubation
Protocol: For this study, we decided to focus our attention on the unique, noncytotoxic, yet membrane-active peptides Leu4-NH2 and Api8-NH2 to study them as potential cancer-targeting agents. […] As reference, K6-NH2 internalization was measured as well, since for this specific peptide, previous studies already reported an increased uptake in tumor cells (HDLM-2 and A2780 tumor cell lines) with respect to normal healthy cells, such as peripheral blood mononuclear cells (PBMCs) or fibroblasts.
Figure 5 Flow cytometry measurements of FITC-conjugated peptaibols in MDA-MB-231 (a) and MCF-10 (b) cells after a 24 h incubation period.
Flow cytometry and peptides conjugated with FITC, namely Api8-FITC and Leu4-FITC, were used to assess the capacity of peptaibols to be internalized by breast cancer cells, Briefly, 8 × 10^4 MDA-MB-231 and MCF-10A cells/well were grown in 24-well plates for 24 h and then incubated for 24 h with 5 μM peptaibols. […] Those washings both before cell detachment from plates and after cell recovery and centrifugation removed any peptides not strongly associated with cell plasma membranes, assuring FITC signals measured by flow cytometry were referred exclusively to internalized peptides. Cells were centrifuged and resuspended in Versene before measuring FITC fluorescence using a BD Fortessa^TM X-20 flow cytometer (Becton Dickinson, San Jose, CA, USA). […]

Compound | killing activity in cancer cells ([1]; 24 h, MTS) | IC50 [1] | IC50 [2] | effect on viability of MCF-10A cells [2] | stability in the presence of cells (CD) [3] | effect on viability of MDA-MB-231 cells ([1]; peptide concentration range tested, 24 h, MTS) | internalization in MDA-MB-231 with respect to MCF-10A cells [4]
CCCCCCCC(=O)NC(C)(C)C(=O)N[C@@H](CCCCN)C(=O)N[C@@H](CC(C)C)C(=O)NC(C)(C)C(=O)N[C@@H](CCCCN)C(=O)NCC(=O)N[C@@H](CC(C)C)C(=O)NC(C)(C)C(=O)NCC(=O)N[C@H](C(=O)N[C@H](CO)CC(C)C)[C@@H](C)CC [K25-Lol, Oct-Aib^1-Lys-Leu-Aib^4-Lys-Gly-Leu-Aib^8-Gly-Ile-Lol^11] (HELM PEPTIDE1{[CCCCCCCC(=O)[*:2]].[Aib].K.L.[Aib].K.G.L.[Aib].G.I.[CC(C)C[C@@H](CO)N[*:1]]}$$$$V2.0) | ~60% | 9 µM | 16 µM | – | – | – | –
CCCCCCCC(=O)NC(C)(C)C(=O)NCC(=O)N[C@@H](CC(C)C)C(=O)N[C@@H](CC(C)C)C(=O)NCC(=O)NCC(=O)N[C@@H](CC(C)C)C(=O)NC(C)(C)C(=O)NCC(=O)N[C@H](C(=O)N[C@@H](CC(C)C)C(N)=O)[C@@H](C)CC [Leu4-NH2, Oct-Aib^1-Gly-Leu-Leu^4-Gly-Gly-Leu-Aib^8-Gly-Ile-Leu^11-NH2] (HELM PEPTIDE1{[CCCCCCCC(=O)[*:2]].[Aib].G.L.L.G.G.L.[Aib].G.I.L.[am]}$$$$V2.0) | – | > 20 µM | > 20 µM | did not significantly affect the viability | stability of the peptides in the presence of cells | – | –
CCCCCCCC(=O)NC(C)(C)C(=O)N[C@@H](CCCCN)C(=O)N[C@@H](CC(C)C)C(=O)NC(C)(C)C(=O)N[C@@H](CCCCN)C(=O)NCC(=O)N[C@@H](CC(C)C)C(=O)NC(C)(C)C(=O)N[C@@H](CCCCN)C(=O)N[C@H](C(=O)N[C@@H](CC(C)C)C(N)=O)[C@@H](C)CC [K259-NH2, Oct-Aib^1-Lys-Leu-Aib^4-Lys-Gly-Leu-Aib^8-Lys-Ile-Leu^11-NH2] (HELM PEPTIDE1{[CCCCCCCC(=O)[*:2]].[Aib].K.L.[Aib].K.G.L.[Aib].K.I.L.[am]}$$$$V2.0) | – | ~13 µM and 13 µM | 17 µM | – | – | – | –
CCCCCCCC(=O)NC(C)(C)C(=O)N[C@@H](CCCCN)C(=O)N[C@@H](CC(C)C)C(=O)NC(C)(C)C(=O)N[C@@H](CCCCN)C(=O)N[C@@H](CCCCN)C(=O)N[C@@H](CC(C)C)C(=O)NC(C)(C)C(=O)N[C@@H](CCCCN)C(=O)N[C@H](C(=O)N[C@H](CO)CC(C)C)[C@@H](C)CC [K2569-Lol, Oct-Aib^1-Lys-Leu-Aib^4-Lys-Lys-Leu-Aib^8-Lys-Ile-Lol^11] (HELM PEPTIDE1{[CCCCCCCC(=O)[*:2]].[Aib].K.L.[Aib].K.K.L.[Aib].K.I.[CC(C)C[C@@H](CO)N[*:1]]}$$$$V2.0) | ~30% | 12 µM | 14 µM | – | – | – | –
CCCCCCCC(=O)NC(C)(C)C(=O)N[C@@H](CCCCN)C(=O)N[C@@H](CC(C)C)C(=O)NC(C)(C)C(=O)N[C@@H](CCCCN)C(=O)NCC(=O)N[C@@H](CC(C)C)C(=O)NC(C)(C)C(=O)N[C@@H](CCCCN)C(=O)N[C@H](C(=O)N[C@H](CO)CC(C)C)[C@@H](C)CC [K259-Lol, Oct-Aib^1-Lys-Leu-Aib^4-Lys-Gly-Leu-Aib^8-Lys-Ile-Lol^11] (HELM PEPTIDE1{[CCCCCCCC(=O)[*:2]].[Aib].K.L.[Aib].K.G.L.[Aib].K.I.[CC(C)C[C@@H](CO)N[*:1]]}$$$$V2.0) | ~60% | 10 µM | 15 µM | – | – | – | –
CCCCCCCC(=O)NC(C)(C)C(=O)NCC(=O)N[C@@H](CC(C)C)C(=O)N[C@@H](CC(C)C)C(=O)NCC(=O)NCC(=O)N[C@@H](CC(C)C)C(=O)NC(C)(C)C(=O)NCC(=O)N[C@H](C(=O)N[C@H](CO)CC(C)C)[C@@H](C)CC [Leu4-Lol, reference compound] (HELM PEPTIDE1{[CCCCCCCC(=O)[*:2]].[Aib].G.L.L.G.G.L.[Aib].G.I.[CC(C)C[C@@H](CO)N[*:1]]}$$$$V2.0) | – | > 20 µM | > 20 µM | did not significantly affect the viability | – | – | –
CCCCCCCC(=O)NC(C)(C)C(=O)NCC(=O)N[C@@H](CC(C)C)C(=O)NC(C)(C)C(=O)N[C@@H](CCCCN)C(=O)N[C@@H](CCCCN)C(=O)N[C@@H](CC(C)C)C(=O)NC(C)(C)C(=O)NCC(=O)N[C@H](C(=O)N[C@H](CO)CC(C)C)[C@@H](C)CC [K56-Lol, Oct-Aib^1-Gly-Leu-Aib^4-Lys-Lys-Leu-Aib^8-Gly-Ile-Lol^11] | ~20% | 12 µM | 18 µM | – | – | – | –
CCCCCCCC(=O)NC(C)(C)C(=O)NCC(=O)N[C@@H](CC(C)C)C(=O)NC(C)(C)C(=O)NCC(=O)NCC(=O)N[C@@H](CC(C)C)C(=O)NC1(C(=O)NCC(=O)N[C@H](C(=O)N[C@@H](CC(C)C)C(N)=O)[C@@H](C)CC)CCNCC1 [Api8-NH2, Oct-Aib^1-Gly-Leu-Aib^4-Gly-Gly-Leu-Api^8-Gly-Ile-Leu^11-NH2] (HELM PEPTIDE1{[CCCCCCCC(=O)[*:2]].[Aib].G.L.[Aib].G.G.L.[O=C(C1(N[*:1])CCNCC1)[*:2]].G.I.L.[am]}$$$$V2.0) | – | > 20 µM | > 20 µM | did not significantly affect the viability | stability of the peptides in the presence of cells | did not significantly affect the viability | –
Oct-Aib^1-Gly-Leu-Leu^4-Gly-Gly-Leu-Aib^8-Gly-Ile-Leu^11-NH-(CH2)2-NH-FITC [Leu4-FITC] | – | – | – | – | – | – | about 5 folds
CCCCCCCC(=O)NC(C)(C)C(=O)N[C@@H](CCCCN)C(=O)N[C@@H](CC(C)C)C(=O)NC(C)(C)C(=O)NCC(=O)NCC(=O)N[C@@H](CC(C)C)C(=O)NC(C)(C)C(=O)NCC(=O)N[C@H](C(=O)N[C@@H](CC(C)C)C(N)=O)[C@@H](C)CC [K2-NH2, Oct-Aib^1-Lys-Leu-Aib^4-Gly-Gly-Leu-Aib^8-Gly-Ile-Leu^11-NH2] (HELM PEPTIDE1{[CCCCCCCC(=O)[*:2]].[Aib].K.L.[Aib].G.G.L.[Aib].G.I.L.[am]}$$$$V2.0) | about 90% | 9 µM | 17 µM | – | – | – | –
Oct-Aib^1-Gly-Leu-Aib^4-Gly-Gly-Leu-Api^8-Gly-Ile-Leu^11-NH-(CH2)2-NH-FITC [Api8-FITC] | – | – | – | – | – | – | ~3 folds
